Assay [1] has as its system A549. Description: Cytotoxicity against human A549 cells after 72 hrs by MTT colorimetric assay. Type of assay: functional, cell-based. The settings on record: A549, 72 h. In general terms: Tetrazolium assays rely on reduction of a dye to a coloured formazan, in cell work by metabolically active cells.
Assay [2] can be described thus: Cytotoxicity against human OE21 cells after 72 hrs by MTT colorimetric assay. The following applies: OE21, 72 h. It counts as functional, cell-based.
Assay [3] in a line: Cytotoxicity against human Hs683 cells after 72 hrs by MTT colorimetric assay. Type of assay: functional, cell-based. The settings on record: Hs 683, 72 h.
Assay [4] is described as follows: Cytotoxicity against human U373 cells after 72 hrs by MTT colorimetric assay. Type of assay: functional, cell-based, U-373MG ATCC. The following applies: U373 MG.
Assay [5] relates to SK-MEL. In words: Cytotoxicity against human SK-MEL cells after 72 hrs by MTT colorimetric assay. Type of assay: functional, cell-based.
The subject of assay [6] is B16-F10. Description: Cytotoxicity against mouse B16F10 cells after 72 hrs by MTT colorimetric assay. The following applies: B16-F10, 72 h. It counts as functional, cell-based.

Molecules are shown by their SMILES. Counter-ions that a name gives are not always drawn.

As a reminder, the IC50 is the midpoint of a concentration-inhibition curve. A high value points to lower potency.

On to `COC1C=C[C@@]23CCN(Cc4cc5c(cc42)OCO5)[C@@H]3C1` (stereo partly specified), for which the IC50 in assay [1] was greater than 10 µM; in assay [2] it was 97 µM; in assay [3] it was greater than 10 µM; in assay [4] it was greater than 10 µM; in assay [5], greater than 10 µM; in assay [6], greater than 10 µM.

Take `CO[C@@H]1C=C[C@@]23c4cc5c(cc4CN(C[C@@H]2O)[C@H]3C1)OCO5` [(+)-HAEMANTHAMINE]: the IC50 in assay [1] came out at 4.5 µM; in assay [2], 6.8 µM; in assay [3], 7 µM; in assay [4], 7.7 µM; in assay [5] it was 8.5 µM; in assay [6], 6.8 µM.

Take `COC1=C[C@@H]2CCN3Cc4cc5c(cc4[C@@H]([C@H]23)[C@@H]1O)OCO5` [AMARBELLISINE]: the IC50 came out at 6.7 µM in assay [2], 8.2 µM in assay [3], 7.2 µM in assay [4] and 8.3 µM in assay [5].

With `COc1c2c(cc3c1OCO3)[C@]13C=C[C@H](OC)C[C@H]1N(C2)C[C@@H]3O` [AMBELLINE], the IC50 was greater than 10 µM in assay [1]; 86 µM in assay [2]; greater than 10 µM in assay [3]; greater than 10 µM in assay [4]; greater than 10 µM in assay [5]; greater than 10 µM in assay [6].

Regarding `COc1c2c(cc3c1OCO3)[C@@]13CCN(C2)[C@@H]1CC=C[C@H]3O` [BUPHANAMINE], the IC50 in assay [1], in assay [2], in assay [3], in assay [4], in assay [5] and in assay [6] was greater than 10 µM throughout.

As for `O[C@@H]1CC=C2CCN3Cc4cc5c(cc4[C@H]1[C@@H]23)OCO5` [CARANINE], the IC50 in assay [1], in assay [2], in assay [3], in assay [4], in assay [5] and in assay [6] was greater than 10 µM each time.

Take `CN1CC[C@@H]2C[C@H](O)[C@@H]3OC(=O)c4cc5c(cc4[C@H]3[C@@H]21)OCO5` [CLIVONINE HYDROCHLORIDE]: the IC50 in assay [1], in assay [2], in assay [3], in assay [4], in assay [5] and in assay [6] was greater than 10 µM throughout.

Take `COc1cc2c(cc1OC)[C@@H]1[C@H](O)[C@@H](OC)C=C3CCN(C2)[C@H]31` [GALANTHINE]: the IC50 in assay [1], in assay [2], in assay [3], in assay [4], in assay [5] and in assay [6] was greater than 10 µM each time.

With `CO[C@@H]1C=C[C@@]23c4cc5c(cc4[C@@H](O)N(C[C@H]2O)[C@H]3C1)OCO5` [HAEMANTHIDINE], the IC50 was determined as 4 µM in assay [1]; 3.7 µM in assay [2]; 4.3 µM in assay [3]; 3.8 µM in assay [4]; 4.2 µM in assay [5]; 3.1 µM in assay [6].

`O[C@H]1[C@H]2c3cc4c(cc3CN3CCC(=C[C@@H]1O)[C@H]23)OCO4` [LYCORINE]: the half-inhibitory concentration (IC50) in assay [1] was 4.2 µM; in assay [2] it was 4.5 µM; in assay [3], 6.9 µM; in assay [4], 7.6 µM; in assay [5], 8.4 µM.

Take `CC(O)CC(=O)O[C@H]1C[C@H]2CCN(C)[C@H]2[C@@H]2c3cc4c(cc3C(=O)O[C@H]21)OCO4` (stereo partly specified) [NOBILISITINE B]: the concentration for half-maximal inhibition (IC50) in assay [1], in assay [2], in assay [3], in assay [4], in assay [5] and in assay [6] was greater than 10 µM each time.

As for `COc1cc2c(cc1O)CN1CCC3=CC[C@@H](O)[C@@H]2[C@@H]31` [NORPLUVINE], the IC50 in assay [1], in assay [2], in assay [3], in assay [4], in assay [5] and in assay [6] was greater than 10 µM throughout.

With `COc1cc2c(cc1O)[C@@H]1[C@H](O)[C@@H](O)C=C3CCN(C2)[C@H]31` [PSEUDOLYCORINE], the IC50 is 7.4 µM in assay [1]; 7.9 µM in assay [2]; 7.9 µM in assay [3]; 7.8 µM in assay [4]; greater than 10 µM in assay [5].

Regarding `CO[C@@H]1C=C[C@@]23c4cc5c(cc4CO[C@]2(O)CN(C)[C@H]3C1)OCO5` [TAZETTINE], the IC50 in assay [1] is greater than 10 µM; in assay [2] it was 78 µM; in assay [3], greater than 10 µM; in assay [4] it was greater than 10 µM; in assay [5] it was greater than 10 µM; in assay [6], greater than 10 µM.

For the compound `[O-]c1cc2c3c(c1)c1cc4c(cc1c[n+]3CC2)OCO4` [UNGEREMINE], the concentration for half-maximal inhibition (IC50) was greater than 10 µM in assay [1]; greater than 10 µM in assay [2]; greater than 10 µM in assay [3]; 83 µM in assay [4]; greater than 10 µM in assay [5]; greater than 10 µM in assay [6].
